Columns and labels:
[1] = molecular target: T1, Aldo-keto reductase family 1 member B1 (Homo sapiens, UniProt P15121); assay: Inhibition of human recombinant AKR1B1
[2] = molecular target: T2, Aldo-keto reductase family 1 member B10 (Homo sapiens, UniProt O60218); assay: Inhibition of AKR1B10 (unknown origin)
[3] = molecular target: T1, Aldo-keto reductase family 1 member B1; assay: Inhibition of AKR1B1 (unknown origin)
[4] = molecular target: T1, Aldo-keto reductase family 1 member B1; assay: Inhibition of human recombinant AKR1B1 by fluorescence based analysis
[5] = molecular target: T2, Aldo-keto reductase family 1 member B10; assay: Inhibition of human recombinant AKR1B10
[6] = molecular target: T1, Aldo-keto reductase family 1 member B1; assay: Inhibition of N-terminal 6his-tagged wild type human recombinant AKR1B1 extracted from Escherichia coli BL21 (DE3) by fluorescence based analysis

T2 sequence (O60218 whole entry): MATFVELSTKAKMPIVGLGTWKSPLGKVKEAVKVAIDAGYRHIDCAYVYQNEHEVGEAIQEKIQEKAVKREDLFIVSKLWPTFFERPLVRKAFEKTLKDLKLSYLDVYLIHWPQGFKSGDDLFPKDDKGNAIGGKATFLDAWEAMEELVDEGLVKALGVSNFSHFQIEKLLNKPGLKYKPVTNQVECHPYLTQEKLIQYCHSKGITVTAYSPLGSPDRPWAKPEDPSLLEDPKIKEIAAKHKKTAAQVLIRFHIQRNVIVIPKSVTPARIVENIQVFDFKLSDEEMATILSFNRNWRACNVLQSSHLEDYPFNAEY

Compound `COc1cc(/C=C/C(=O)CC(=O)/C=C/c2ccc(O)cc2)ccc1O` has an IC50 [1] of 1.2 µM.
`COc1ccc(OC)c(/N=c2\oc3cc(O)ccc3cc2C(=O)Nc2ccccn2)c1` was tested, and the IC50 [2] was 0.02 µM.
Compound `COc1ccc(/N=c2\oc3cc(O)ccc3cc2C(=O)Nc2cccc(C)n2)cc1OC` has an IC50 [2] of 0.03 µM.
`COc1ccc(/N=c2\oc3cc(O)ccc3cc2C(=O)Nc2ccccn2)c(OC)c1` was tested, and the IC50 [2] was 0.01 µM.
`COc1ccc(/N=c2\oc3cc(O)ccc3cc2C(=O)Nc2ccccn2)cc1` showed an IC50 [2] of 0.5 µM.
`C[C@]12CCC(=O)C[C@@H]1CC[C@@H]1[C@@H]2CC[C@]2(C)C(=O)CC[C@@H]12` gave an IC50 [3] of 25 µM and an IC50 [2] of 0.39 µM.
Work on `CC1=C(CC(=O)O)c2cc(F)ccc2/C1=C\c1ccc([S+](C)[O-])cc1` (stereo not given) yielded an IC50 [4] of 0.21 µM and an IC50 [5] of 0.35 µM.
Compound `O=C(O)Cn1ccc(=O)n(Cc2ccc(Cl)c([N+](=O)[O-])c2)c1=O` has an IC50 [3] of 10 µM and an IC50 [2] of 21.6 µM.
`Cc1c2cc(O)c(=O)cc-2oc2cc(O)c(O)cc12` showed an IC50 [2] of 0.4 µM.
`COc1cc(O)ccc1/C=C/C(=O)OCCc1ccccc1` was tested, and the IC50 [2] was 0.01 µM.
`COc1cc(O)ccc1/C=C/C(=O)OCCCc1ccccc1O` gave an IC50 [2] of 0.1 µM.
For `COc1cc(O)ccc1/C=C/C(=O)OCCCc1cccc(O)c1`, the IC50 [2] was 0.5 µM.
`CC(C)=CCc1c(O)cc2oc3cc(O)c(O)c(CC=C(C)C)c3c(=O)c2c1O` showed an IC50 [1] of 0.29 µM.
For `O=C(/C=C/c1ccc(O)c(O)c1)O[C@H]1C[C@@](O)(C(=O)O)C[C@H](O)[C@@H]1O`, the IC50 [2] was 7.9 µM.
With `CC(C)=CCC1=C(O)[C@](O)(CC=C(C)C)C(=O)C(C(=O)CC(C)C)=C1O` the IC50 [3] was > 125 µM and the IC50 [2] was 1.94 µM.
Compound `C=CCc1cc(-c2cccc(CC=C)c2O)ccc1O` has an IC50 [1] of 36 µM.
`O=C(NCCCc1cccc(O)c1)c1cc2ccc(O)cc2oc1=O` was tested, and the IC50 [2] was 0.8 µM.
`CC(=O)[C@H]1CC[C@H]2[C@@H]3CC[C@H]4CC(=O)CC[C@]4(C)[C@H]3CC[C@]12C` gave an IC50 [3] of 13 µM and an IC50 [2] of 0.44 µM.
`COc1cc(O)c(CC=C(C)C)c2c1C(=O)C[C@@H](c1ccc(O)cc1)O2` was tested, and the IC50 [3] was 0.57 µM and the IC50 [2] was 1.09 µM.
For `CC(=O)[C@H]1CC[C@H]2[C@@H]3CC[C@@H]4CC(=O)CC[C@]4(C)[C@H]3CC[C@]12C`, the IC50 [3] was 9 µM and the IC50 [2] was 0.78 µM.
Work on `C[C@@]12CCC[C@H]1[C@@H]1C[C@H](O)C3=C[C@@H](O)CC[C@]3(C)[C@H]1CC2` yielded an IC50 [3] of 68 µM and an IC50 [2] of 0.5 µM.
`Oc1c(F)c(F)c(-c2c(F)c(F)c(O)c(F)c2F)c(F)c1F` showed an IC50 [3] of 0.3 µM and an IC50 [2] of 1 µM.
With `CC(C)=CCC1=C(O)[C@](O)(CC=C(C)C)C(=O)C(C(=O)C(C)C)=C1O` the IC50 [3] was > 125 µM.
With `C/C(=C\c1ccc(C(=O)O)cc1Br)c1ccc2c(c1)C(C)(C)CCC2(C)C` the IC50 [3] was > 70 µM and the IC50 [2] was 6.1 µM.
`C[C@]12CCC(=O)C[C@@H]1CC[C@@H]1[C@@H]2CC[C@]2(C)[C@@H](C(=O)CO)CC[C@@H]12` was tested, and the IC50 [3] was 55 µM and the IC50 [2] was 0.37 µM.
`COc1c(Cn2c(=O)ccn(CC(=O)O)c2=O)cc(Br)c(Br)c1Br` showed an IC50 [3] of 3.6 µM and an IC50 [2] of 0.45 µM.
`C[C@H](CCC(=O)O)[C@H]1CC[C@H]2[C@@H]3C[C@@H](O)[C@@]4(O)C[C@@H](O)CC[C@]4(C)[C@H]3CC[C@]12C` was tested, and the IC50 [3] was > 100 µM and the IC50 [2] was 0.83 µM.
In the case of `C[C@@]12CCC[C@H]1[C@@H]1CC(=O)C3=CC(=O)CC[C@]3(C)[C@H]1CC2`, the IC50 [3] is reported as 158 µM and the IC50 [2] is reported as 0.81 µM.
In the case of `C[C@H](CCC(=O)O)[C@H]1CC[C@H]2[C@@H]3C[C@@H](O)[C@@]4(O)C[C@@H](O)CC[C@]4(CO)[C@H]3CC[C@]12C`, the IC50 [3] is reported as 5.4 µM and the IC50 [2] is reported as 0.76 µM.
`NC(=O)[C@@H]1C[C@]2(NC(=O)NC2=O)c2cc(F)ccc2O1` was tested, and the IC50 [6] was 0.08 µM and the IC50 [2] was 24 µM.
For `O=C(/C=C/c1ccc(O)c(O)c1)c1ccc(O)cc1O` [BUTEIN], the IC50 [1] was 0.5 µM.
In the case of `O=c1cc(-c2ccccc2)oc2cc(O)cc(O)c12` [CHRYSIN], the IC50 [3] is reported as 0.29 µM and the IC50 [2] is reported as 2.1 µM.
Compound `COc1cc(/C=C/C(=O)CC(=O)/C=C/c2ccc(O)c(OC)c2)ccc1O` [CURCUMIN] has an IC50 [1] of 7.3 µM.
With `O=C(O)Cc1ccccc1Nc1c(Cl)cccc1Cl` [DICLOFENAC] the IC50 [4] was > 100 µM.
`Cc1cc(O)c2c(c1)C(=O)c1cc(O)cc(O)c1C2=O` [EMODIN] was tested, and the IC50 [1] was 3.47 µM.
Work on `C[C@]12CC[C@H](O)C[C@@H]1CC[C@@H]1[C@@H]2CC[C@]2(C)C(=O)CC[C@@H]12` [EPIANDROSTERONE] yielded an IC50 [3] of 37 µM and an IC50 [2] of 0.32 µM.
`C[C@]12CC[C@@H]3c4ccc(O)cc4CC[C@H]3[C@@H]1CC[C@@H]2O` [ESTRADIOL] gave an IC50 [3] of 24 µM and an IC50 [2] of 3 µM.
In the case of `C[C@]12CC[C@@H]3c4ccc(O)cc4CC[C@H]3[C@@H]1CCC2=O` [ESTRONE], the IC50 [3] is reported as 31 µM and the IC50 [2] is reported as 1.6 µM.
`Cc1cc(O)c2c(c1)C(=O)c1cc(O[C@@H]3O[C@@H](C)[C@H](O)[C@@H](O)[C@H]3O)cc(O)c1C2=O` [FRANGULIN A] gave an IC50 [1] of 5.73 µM.
`Cc1cc(O)c2c(c1)C(=O)c1cc(O[C@@H]3OC[C@](O)(CO)[C@H]3O)cc(O)c1C2=O` [FRANGULIN B] showed an IC50 [1] of 5.45 µM.
Compound `O=c1c(-c2ccc(O)cc2)coc2cc(O)cc(O)c12` [GENISTEIN] has an IC50 [2] of 5.5 µM.
Compound `C[C@H](CCC(=O)O)[C@H]1CC[C@H]2[C@@H]3CC[C@@H]4C[C@@H](O)CC[C@]4(C)[C@H]3CC[C@]12C` [ISOLITHOCHOLIC ACID] has an IC50 [2] of 0.02 µM.
With `C=CCc1ccc(O)c(-c2cc(CC=C)ccc2O)c1` [MAGNOLOL] the IC50 [1] was 28 µM.
Compound `COc1c(O)cc2oc3cc(O)c(CC=C(C)C)c(O)c3c(=O)c2c1CC=C(C)C` [MANGOSTIN] has an IC50 [1] of 4.1 µM.
Compound `CC1(C)CC[C@]2(C(=O)O)CC[C@]3(C)C(=CC[C@@H]4[C@@]5(C)C[C@@H](O)[C@H](O)C(C)(C)[C@@H]5CC[C@]43C)[C@@H]2C1` [MASLINIC ACID] has an IC50 [2] of 0.6 µM.
In the case of `Cc1ccc(Cl)c(Nc2ccccc2C(=O)O)c1Cl` [MECLOFENAMIC ACID], the IC50 [4] is reported as > 100 µM and the IC50 [5] is reported as 9.8 µM.
For `O=c1c(O)c(-c2cc(O)c(O)c(O)c2)oc2cc(O)cc(O)c12` [MYRICETIN], the IC50 [3] was 0.61 µM.
With `O=c1c(O)c(-c2ccc(O)c(O)c2)oc2cc(O)cc(O)c12` [QUERCETIN] the IC50 [2] was 1.9 µM.
With `Oc1ccc(/C=C/c2cc(O)cc(O)c2)cc1` [RESVERATROL] the IC50 [1] was 73 µM.
Work on `CC(=O)[C@H]1CC[C@H]2[C@@H]3CC[C@H]4C[C@@H](O)CC[C@]4(C)[C@H]3CC[C@]12C` [SEPRANOLONE] yielded an IC50 [3] of 39 µM and an IC50 [2] of 0.5 µM.
`COc1ccc2c(C(=S)N(C)CC(=O)O)cccc2c1C(F)(F)F` [TOLRESTAT] was tested, and the IC50 [2] was 0.05 µM.
`C[C@H](CCC(=O)O)[C@H]1CC[C@H]2[C@@H]3CC[C@@H]4CCCC[C@]4(C)[C@H]3CC[C@]12C` [URSOCHOLANIC ACID] showed an IC50 [3] of 16 µM and an IC50 [2] of 0.05 µM.

— ChEMBL document CHEMBL6087480, “In Search for Inhibitors of Human Aldo-Keto Reductase 1B10 (AKR1B10) as Novel Agents to Fight Cancer and Chemoresistance: Current State-of-the-Art and Prospects” (J Med Chem, 2025)
